US20260356830A1, “COMPOUNDS FOR MODULATING RET PROTEIN” (Bristol-Myers Squibb Company, priority 2022, published 2026)

Target: T1, CCDC6-RET (Homo sapiens, UniProt P07949+Q16204+Q96SW2)
T1 construct: CCDC6 (natural N-terminal fusion partner, UniProt Q16204); endogenous in cells; host or cells: TPC-1 (parental, papillary thyroid carcinoma)
Assay: Cellular RET degradation, AlphaLISA, TPC-1 cell line
Type: cell-based
Conditions: for Dmax: TPC1, human, 24 h, read-out: Cell Density TPC-1/CCDC6-RET Ymax %; for DC50: read-out: Cell Density TPC-1/CCDC6-RET DC50, half-maximal degradation concentration, TPC-1 (CCDC6-RET), 24 hrs
In short: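 Luminescent AlphaLISA read of RET abundance in lysates after 24 h compound exposure (37 °C, 2% FBS DMEM) of CCDC6-RET-bearing TPC-1 cells. % degradation relative to DMSO (high) and media (low) controls, fitted to 4-parameter logistic curve for DC50 and Ymax.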

T1 sequence (Q16204+P07949 fused): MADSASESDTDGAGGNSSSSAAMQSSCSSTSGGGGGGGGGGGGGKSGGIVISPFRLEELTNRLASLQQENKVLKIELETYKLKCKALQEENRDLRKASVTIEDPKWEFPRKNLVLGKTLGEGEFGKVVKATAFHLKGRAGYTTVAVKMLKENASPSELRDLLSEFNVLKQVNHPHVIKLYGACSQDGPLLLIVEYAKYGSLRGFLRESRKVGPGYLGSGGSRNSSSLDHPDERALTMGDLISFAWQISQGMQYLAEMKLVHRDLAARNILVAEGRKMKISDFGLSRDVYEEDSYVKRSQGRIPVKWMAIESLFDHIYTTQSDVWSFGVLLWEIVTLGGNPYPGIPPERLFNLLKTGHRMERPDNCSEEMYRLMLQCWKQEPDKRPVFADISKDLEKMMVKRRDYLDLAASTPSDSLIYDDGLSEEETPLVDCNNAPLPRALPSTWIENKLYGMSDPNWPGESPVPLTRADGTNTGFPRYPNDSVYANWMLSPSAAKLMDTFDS
T1 sequence (Q96SW2 whole entry, the tested form may be a part): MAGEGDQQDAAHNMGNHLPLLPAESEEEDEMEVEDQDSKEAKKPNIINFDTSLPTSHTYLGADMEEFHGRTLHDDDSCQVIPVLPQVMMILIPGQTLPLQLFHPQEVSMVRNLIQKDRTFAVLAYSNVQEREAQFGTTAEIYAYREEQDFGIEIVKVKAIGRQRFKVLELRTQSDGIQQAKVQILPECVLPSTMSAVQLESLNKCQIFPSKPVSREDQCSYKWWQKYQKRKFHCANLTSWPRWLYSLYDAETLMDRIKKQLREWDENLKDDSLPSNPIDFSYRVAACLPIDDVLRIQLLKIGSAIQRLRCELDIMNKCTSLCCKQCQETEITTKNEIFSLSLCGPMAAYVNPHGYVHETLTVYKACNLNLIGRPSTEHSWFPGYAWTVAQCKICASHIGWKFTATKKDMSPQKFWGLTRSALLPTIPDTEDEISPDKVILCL
T1 sequence (Q16531 whole entry partner, the tested form may be a part): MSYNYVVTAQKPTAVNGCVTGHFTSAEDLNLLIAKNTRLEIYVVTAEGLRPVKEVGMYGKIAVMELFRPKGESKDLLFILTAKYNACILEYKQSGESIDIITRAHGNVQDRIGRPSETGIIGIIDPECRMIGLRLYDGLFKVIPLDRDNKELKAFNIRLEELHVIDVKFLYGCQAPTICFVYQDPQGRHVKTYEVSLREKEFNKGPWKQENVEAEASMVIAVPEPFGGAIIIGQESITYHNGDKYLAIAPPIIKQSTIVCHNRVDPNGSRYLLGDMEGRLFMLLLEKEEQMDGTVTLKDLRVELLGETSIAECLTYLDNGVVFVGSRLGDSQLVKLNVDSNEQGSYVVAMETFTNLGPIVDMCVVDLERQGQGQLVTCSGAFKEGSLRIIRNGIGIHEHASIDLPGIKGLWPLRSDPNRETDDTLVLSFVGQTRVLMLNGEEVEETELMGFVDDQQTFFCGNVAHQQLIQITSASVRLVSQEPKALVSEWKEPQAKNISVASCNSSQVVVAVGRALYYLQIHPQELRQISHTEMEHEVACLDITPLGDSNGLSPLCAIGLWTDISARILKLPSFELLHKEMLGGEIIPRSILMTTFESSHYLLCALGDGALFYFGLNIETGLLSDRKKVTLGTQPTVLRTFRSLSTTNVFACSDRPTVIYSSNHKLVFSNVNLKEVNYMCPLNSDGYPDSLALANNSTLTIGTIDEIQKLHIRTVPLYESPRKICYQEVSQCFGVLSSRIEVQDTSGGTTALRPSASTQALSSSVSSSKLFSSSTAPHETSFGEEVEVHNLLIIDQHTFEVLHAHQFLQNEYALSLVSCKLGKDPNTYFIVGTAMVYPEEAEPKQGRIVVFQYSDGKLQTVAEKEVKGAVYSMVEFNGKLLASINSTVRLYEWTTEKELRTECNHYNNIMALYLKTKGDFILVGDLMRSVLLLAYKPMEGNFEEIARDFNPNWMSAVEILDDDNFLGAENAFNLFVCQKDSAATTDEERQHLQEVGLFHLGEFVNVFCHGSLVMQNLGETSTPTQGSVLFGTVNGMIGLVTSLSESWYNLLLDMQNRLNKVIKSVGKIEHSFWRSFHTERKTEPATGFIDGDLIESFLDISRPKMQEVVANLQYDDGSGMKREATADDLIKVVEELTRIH

Compound | Dmax [%] | DC50 [nM]
CCOc1cc(-c2ccc(N3CCC(CN4CCN(C(=O)CCN5CCC(c6ccc7c(c6)C(=O)N(C6CCC(=O)NC6=O)C7)CC5)CC4)(C(=O)NC(C)C)CC3)nc2)c2c(C#N)cnn2c1 (stereo not drawn) [Example 76, 1-(5-(3-cyano-6-ethoxypyrazolo[1,5-a]pyridin-4-yl)pyridin-2-yl)-4-((4-(3-(4-(2-(2,6-dioxopiperidin-3-yl)-3-oxoisoindolin-5-yl)piperidin-1-yl)propanoyl)piperazin-1-yl)methyl)-N-isopropylpiperidine-4-carboxamide] | 60 to 90 | 10 to 100
CCOc1cc(-c2ccc(N3CCC(C)(CN4CCN(C(=O)CCN5CCC(c6ccc7c(c6)C(=O)N(C6CCC(=O)NC6=O)C7)CC5)CC4)CC3)nc2)c2c(C#N)cnn2c1 (stereo not drawn) [Example 147, 4-[6-(4-{[4-(3-{4-[2-(2,6-dioxopiperidin-3-yl)-3-oxo-2,3-dihydro-1H-isoindol-5-yl]piperidin-1-yl}propanoyl)piperazin-1-yl]methyl}-4-methylpiperidin-1-yl)pyridin-3-yl]-6-ethoxypyrazolo[1,5-a]pyridine-3-carbonitrile] | 60 to 90 | 10 to 100
CCOc1cc(-c2ccc(N3CCC(CN(C)C(=O)CCCCCCN4CCC(c5ccc6c(c5)C(=O)N(C5CCC(=O)NC5=O)C6)CC4)(NC(=O)c4cc(F)ccc4F)CC3)nc2)c2c(C#N)cnn2c1 (stereo not drawn) [Example 146, N-[1-(5-{3-cyano-6-ethoxypyrazolo[1,5-a]pyridin-4-yl}pyridin-2-yl)-4-[(7-{4-[2-(2,6-dioxopiperidin-3-yl)-3-oxo-2,3-dihydro-1H-isoindol-5-yl]piperidin-1-yl}-N-methylheptanamido)methyl]piperidin-4-yl]-2,5-difluorobenzamide] | > 90 | 10 to 100
CCOc1cc(-c2ccc(N3CCC(Cc4ccccc4)(NC(=O)CN4CCN(C(=O)CCN5CCC(c6ccc7c(c6)C(=O)N(C6CCC(=O)NC6=O)C7)CC5)CC4)CC3)nc2)c2c(C#N)cnn2c1 (stereo not drawn) [Example 53, N-[4-benzyl-1-[5-(3-cyano-6-ethoxy-pyrazolo[1,5-a]pyridin-4-yl)-2-pyridyl]-4-piperidyl]-2-[4-[3-[4-[2-(2,6-dioxo-3-piperidyl)-3-oxo-isoindolin-5-yl]-1-piperidyl]propanoyl]piperazin-1-yl]acetamide] | 60 to 90 | 10 to 100
CCOc1cc(-c2ccc(N3CCC(CN4CCN(C(=O)CCCCCCCCNc5ccc6c(N7CCC(=O)NC7=O)nn(C)c6c5)CC4)(NC(=O)c4cc(F)ccc4F)CC3)nc2)c2c(C#N)cnn2c1 [Example 24, N-[1-(5-{3-cyano-6-ethoxypyrazolo[1,5-a]pyridin-4-yl}pyridin-2-yl)-4-{[4-(9-{[3-(2,4-dioxo-1,3-diazinan-1-yl)-1-methyl-1H-indazol-6-yl]amino}nonanoyl)piperazin-1-yl]methyl}piperidin-4-yl]-2,5-difluorobenzamide] | 60 to 90 | 10 to 100
CCOc1cc(-c2ccc(N3CCC(CN4CCN(C(=O)CCCCCCCCNc5ccc(C6CCC(=O)NC6=O)cc5)CC4)(NC(=O)c4cc(F)ccc4F)CC3)nc2)c2c(C#N)cnn2c1 (stereo not drawn) [Example 21, N-[1-(5-{3-cyano-6-ethoxypyrazolo[1,5-a]pyridin-4-yl}pyridin-2-yl)-4-{[4-(9-{[4-(2,6-dioxopiperidin-3-yl)phenyl]amino}nonanoyl)piperazin-1-yl]methyl}piperidin-4-yl]-2,5-difluorobenzamide] | 60 to 90 | 10 to 100
CCOc1cc(-c2ccc(N3CCC(CN4CCC5(CC4)CCN(C(=O)CCN4CCN(c6ccc7c(c6)CN(C6CCC(=O)NC6=O)C7=O)CC4)CC5)(NC(=O)c4cc(F)ccc4F)CC3)nc2)c2c(C#N)cnn2c1 (stereo not drawn) [Example 87, N-[1-(5-{3-cyano-6-ethoxypyrazolo[1,5-a]pyridin-4-yl}pyridin-2-yl)-4-{[9-(3-{4-[2-(2,6-dioxopiperidin-3-yl)-1-oxo-2,3-dihydro-1H-isoindol-5-yl]piperazin-1-yl}propanoyl)-3,9-diazaspiro[5.5]undecan-3-yl]methyl}piperidin-4-yl]-2,5-difluorobenzamide] | > 90 | 2 to 10
CCOc1cc(-c2ccc(N3CCC(NC(=O)c4cc(F)ccc4F)(C(=O)NCCCCN4CCN(c5ccc6c(c5)CN(C5CCC(=O)NC5=O)C6=O)CC4)CC3)nc2)c2c(C#N)cnn2c1 (stereo not drawn) [Example 154, 1-(5-{3-cyano-6-ethoxypyrazolo[1,5-a]pyridin-4-yl}pyridin-2-yl)-4-(2,5-difluorobenzamido)-N-(4-{4-[2-(2,6-dioxopiperidin-3-yl)-1-oxo-2,3-dihydro-1H-isoindol-5-yl]piperazin-1-yl}butyl)piperidine-4-carboxamide] | 60 to 90 | 10 to 100
CCOc1cc(-c2ccc(N3CCC(CN(C)C(=O)CCCCN4CCC(c5ccc6c(c5)C(=O)N(C5CCC(=O)NC5=O)C6)CC4)(NC(=O)c4cc(F)ccc4F)CC3)nc2)c2c(C#N)cnn2c1 (stereo not drawn) [Example 145, N-[1-(5-{3-cyano-6-ethoxypyrazolo[1,5-a]pyridin-4-yl}pyridin-2-yl)-4-[(5-{4-[2-(2,6-dioxopiperidin-3-yl)-3-oxo-2,3-dihydro-1H-isoindol-5-yl]piperidin-1-yl}-N-methylpentanamido)methyl]piperidin-4-yl]-2,5-difluorobenzamide] | 60 to 90 | 2 to 10

Second part, the molecule after the results:

Dmax [%] | DC50 [nM] | Compound
> 90 | 2 to 10 | CCOc1cc(-c2ccc(N3CCC(CN4CCC5(CCC(CC(=O)N6CCN(c7ccc8c(c7)C(=O)N(C7CCC(=O)NC7=O)C8)CC6)CC5)CC4)(NC(=O)c4cc(F)ccc4F)CC3)nc2)c2c(C#N)cnn2c1 (stereo not drawn) [Example 123, N-[1-(5-{3-cyano-6-ethoxypyrazolo[1,5-a]pyridin-4-yl}pyridin-2-yl)-4-{[9-(2-{4-[2-(2,6-dioxopiperidin-3-yl)-3-oxo-2,3-dihydro-1H-isoindol-5-yl]piperazin-1-yl}-2-oxoethyl)-3-azaspiro[5.5]undecan-3-yl]methyl}piperidin-4-yl]-2,5-difluorobenzamide]
60 to 90 | 2 to 10 | CCOc1cc(-c2ccc(N3CCC(Cc4ccccc4)(NC(=O)N4CCC(N5CCC(c6ccc7c(c6)C(=O)N(C6CCC(=O)NC6=O)C7)CC5)CC4)CC3)nc2)c2c(C#N)cnn2c1 (stereo not drawn) [Example 56, N-[4-benzyl-1-[5-(3-cyano-6-ethoxy-pyrazolo[1,5-a]pyridin-4-yl)-2-pyridyl]-4-piperidyl]-4-[4-[2-(2,6-dioxo-3-piperidyl)-3-oxo-isoindolin-5-yl]-1-piperidyl]piperidine-1-carboxamide]
> 90 | 2 to 10 | CCOc1cc(-c2ccc(N3CCC(NC(=O)c4cc(F)ccc4F)(C(=O)NCCCCCCN4CCN(c5ccc6c(c5)C(=O)N(C5CCC(=O)NC5=O)C6)CC4)CC3)nc2)c2c(C#N)cnn2c1 (stereo not drawn) [Example 160, 1-(5-{3-cyano-6-ethoxypyrazolo[1,5-a]pyridin-4-yl}pyridin-2-yl)-4-(2,5-difluorobenzamido)-N-(6-{4-[2-(2,6-dioxopiperidin-3-yl)-3-oxo-2,3-dihydro-1H-isoindol-5-yl]piperazin-1-yl}hexyl)piperidine-4-carboxamide]
> 90 | 2 to 10 | CCOc1cc(-c2ccc(N3CCC(CN4CCN(C(=O)CCN5CCC(c6ccc7c(c6)C(=O)N(C6CCC(=O)NC6=O)C7)CC5)CC4)(NC(=O)C4CC4)CC3)nc2)c2c(C#N)cnn2c1 (stereo not drawn) [Example 9, N-(1-(5-(3-cyano-6-ethoxypyrazolo[1,5-a]pyridin-4-yl)pyridin-2-yl)-4-((4-(3-(4-(2-(2,6-dioxopiperidin-3-yl)-3-oxoisoindolin-5-yl)piperidin-1-yl)propanoyl)piperazin-1-yl)methyl)piperidin-4-yl)cyclopropanecarboxamide]
> 90 | 2 to 10 | CCOc1cc(-c2ccc(N3CCC(Cc4ccccc4)(NC(=O)C4CCN(C(=O)CCN5CCC(c6ccc7c(c6)C(=O)N(C6CCC(=O)NC6=O)C7)CC5)CC4)CC3)nc2)c2c(C#N)cnn2c1 (stereo not drawn) [Example 52, N-[4-benzyl-1-[5-(3-cyano-6-ethoxy-pyrazolo[1,5-a]pyridin-4-yl)-2-pyridyl]-4-piperidyl]-1-[3-[4-[2-(2,6-dioxo-3-piperidyl)-3-oxo-isoindolin-5-yl]-1-piperidyl]propanoyl]piperidine-4-carboxamide]
 | < 2 | CCOc1cc(-c2ccc(N3CCC(CN4CCN(C(=O)CCCCCN5CCC(c6ccc7c(N8CCC(=O)NC8=O)nn(C)c7c6)CC5)CC4)(NC(=O)c4cc(F)ccc4F)CC3)nc2)c2c(C#N)cnn2c1 [Example 42, N-(1-(5-(3-cyano-6-ethoxypyrazolo[1,5-a]pyridin-4-yl)pyridin-2-yl)-4-((4-(6-(4-(3-(2,4-dioxotetrahydropyrimidin-1(2H)-yl)-1-methyl-1H-indazol-6-yl)piperidin-1-yl)hexanoyl)piperazin-1-yl)methyl)piperidin-4-yl)-2,5-difluorobenzamide]
> 90 | < 2 | CCOc1cc(-c2ccc(N3CCC(CN4CCN(C(=O)CCN5CCN(c6ccc7c(c6)C(=O)N(C6CCC(=O)NC6=O)C7)CC5)CC4)(NC(=O)c4cc(F)ccc4F)CC3)nc2)c2c(C#N)cnn2c1 (stereo not drawn) [Example 12, N-(1-(5-(3-cyano-6-ethoxypyrazolo[1,5-a]pyridin-4-yl)pyridin-2-yl)-4-((4-(3-(4-(2-(2,6-dioxopiperidin-3-yl)-3-oxoisoindolin-5-yl)piperazin-1-yl)propanoyl)piperazin-1-yl)methyl)piperidin-4-yl)-2,5-difluorobenzamide]
> 90 | 2 to 10 | CCOc1cc(-c2ccc(N3CCC(CN4CCC5(CCC(CC(=O)N6CCC(c7ccc8c(c7)CN(C7CCC(=O)NC7=O)C8=O)CC6)CC5)CC4)(NC(=O)c4cc(F)ccc4F)CC3)nc2)c2c(C#N)cnn2c1 (stereo not drawn) [Example 122, N-[1-(5-{3-cyano-6-ethoxypyrazolo[1,5-a]pyridin-4-yl}pyridin-2-yl)-4-{[9-(2-{4-[2-(2,6-dioxopiperidin-3-yl)-1-oxo-2,3-dihydro-1H-isoindol-5-yl]piperidin-1-yl}-2-oxoethyl)-3-azaspiro[5.5]undecan-3-yl]methyl}piperidin-4-yl]-2,5-difluorobenzamide]
